Source: patent US7786081B2, “Peptide composition” (Pepsyn Ltd., priority 1993, dated 2010)

What was measured:
[1] = known agent, stated drawback; cited from earlier work
[2] = system: Human keratinocytes (HatKat); assay: Growth of keratinocytes (cell count, Coulter counter); format: cell-based
Protocol: Human keratinocytes (HatKat) were grown in keratinocyte growth medium (TCS Cellworks Ltd.) until 20% confluence. Then, in the same medium, the keratinocytes were grown for three days with 0.5% foetal calf serum (FCS), at which point the cells were counted in a Coulter® counter. The cell numbers obtained are set out in Table 3 below.

## CC1=C(/C=C/C(C)=C/C=C/C(C)=C/C(=O)O)C(C)(C)CCC1 [all-trans retinoic acid]
[1]
  erythema at the site of application: produces marked erythema

## EGF: epidermal growth factor, comparator in the keratinocyte growth test (NSDSECPLSHDGYCLHDGVCMYIEALDKYACNCVVGYIGERCQYRDLKWWELR; UniProt P01133 971-1023, looked up)
[2]; 10 ng/ml EGF vs medium with 0.5% FCS
  increase in the growth of keratinocytes: relatively modest increase
[2]; Medium with 0.5% FCS + 10 ng/ml EGF, three days, medium alone 23,777
  Number of cells: 29,356
